Legend:
[1] = system: small human bronchi; test: Relaxation of small human bronchi, with and without 2-APB pre-treatment
Text: More recent studies have lead to the belief that they instead block the TRPC receptor.

[2] = biological target: VR1 (Rattus norvegicus, UniProt O35433); details: capsaicin-induced effects in rodents; cited from earlier work
[3] = system: human isolated airway preparations (bronchus) contracted with LTD4; test: LTD4-induced contraction of isolated human bronchus preparation (force transducer), remaining contraction after exposure to test substance; details: for effectiveness in relaxing broncho-constriction in comparison to capsazepine: LTD4 as broncho-contracting agent, test system of Example 1
Experimental: Dissection and mounting of lung tissue preparations. Lung tissue was obtained from patients undergoing lobectomia or pulmectomia due to lung carcinoma. The tissue was placed in a dissection chamber continuously perfused with 10 ml min^−1 of a physiological saline solution (PSS) at room temperature. An airway was identified in the cut part of the lobe, and a bronchus of 10-20 mm length and 1-2 mm diameter was obtained. The bronchus was cut into rings of a width of about 2-3 mm. Each bronchial ring was cleaved to obtain an about rectangular oblong preparation, one end of which was tied to a small steel hook connected to a force transducer, while the other end of the preparation was attached to a fixed hook. This is followed by a period of adjustment, as described below. The preparation was mounted in an atmosphere containing […] and 6% of CO2.
Experimental chamber. The experimental chamber has a a volume of 5 ml. It is perfused with PSS at a rate of 3 ml min^−1. Two preparations are mounted in the chamber, and measurements on them are performed in parallel. For mechanical tensioning each force transducer (AME 801, SensoNor A/S, Horten, Norway) is connected to a micrometer screw. The substances to be tested, the reference substance (capsazepine), and transmitter (LTD4) are injected upstream of the preparation(s).
Materials. PPS (physiological saline solution, in mM): NaCl, 117; KCl, 4.87; MgSO4, 0.60; NaHCO3, 25.0; CaCl2, 1.60; glucose, 5.23. The solution is saturated with a mixture of 94% oxygen and 6% carbon dioxide, giving a pH of 7.40±0.05 in the experimental chamber. All substances are prepared as stock solution dissolved in the vehicles ethanol or DMSO. Leukotriene D4 (LTD4; Keyman Ltd.): 10 μl of a 100 μM ethanol stock solution. Capsazepine (Sigma Aldrich): 10 μl of a 0.1 M ethanol stock solution. Substance to be tested: 10-100 μl of a 0.01-0.1 M ethanol or DMSO stock solution. Solution for establishing the passive tension level: calcium-free PSS+2 mM EGTA+20 mM caffeine. To exclude effects by the test substance vehicle, ethanol or DMSO, respectively, were added during the entire experiment except during the presence of test substance.
An exemplary test is shown in FIG. 1 in which capital letters indicate interference with the test system. The material for the preparation was a bronchus (inner diameter about 1 mm) from a occasional smoker but with the epithelium intact. Adjustment and stretch. After mounting as described above the preparation is allowed to adjust with a low passive tone in the experimental chamber. The composition of the gas is changed to 94% (v/v) of oxygen. After a short adjustment period, PSS with 10 nM LTD4 is added to the experimental chamber upstream of the preparation (A). The preparation is stretched repeatedly (B) until it exerts a contraction force of around 150 mg. When the contraction has levelled off, leukotriene-free solution is administered for 1 hour (C), resulting in a relaxation. A second injection of 10 nM LTD4 (D) makes the preparation return to the tensioned state. At the peak tension leukotriene-free solution is again administered (E). After a third injection of 10 nM LTD4 (F) the preparation returns to the tensioned state. At the peak, PSS with 10 μM capsazepine (G) is added, resulting in a relaxation. After 1 h exposure to capsazepine, LTD4 is added, resulting in a contraction (H). In comparison with the control LTD4 contraction (F), a substantially weaker contraction is now observed (H). […]

[4] = system: guinea pig airway preparations; details: cited from earlier work

VR1, sequence (O35433 whole entry): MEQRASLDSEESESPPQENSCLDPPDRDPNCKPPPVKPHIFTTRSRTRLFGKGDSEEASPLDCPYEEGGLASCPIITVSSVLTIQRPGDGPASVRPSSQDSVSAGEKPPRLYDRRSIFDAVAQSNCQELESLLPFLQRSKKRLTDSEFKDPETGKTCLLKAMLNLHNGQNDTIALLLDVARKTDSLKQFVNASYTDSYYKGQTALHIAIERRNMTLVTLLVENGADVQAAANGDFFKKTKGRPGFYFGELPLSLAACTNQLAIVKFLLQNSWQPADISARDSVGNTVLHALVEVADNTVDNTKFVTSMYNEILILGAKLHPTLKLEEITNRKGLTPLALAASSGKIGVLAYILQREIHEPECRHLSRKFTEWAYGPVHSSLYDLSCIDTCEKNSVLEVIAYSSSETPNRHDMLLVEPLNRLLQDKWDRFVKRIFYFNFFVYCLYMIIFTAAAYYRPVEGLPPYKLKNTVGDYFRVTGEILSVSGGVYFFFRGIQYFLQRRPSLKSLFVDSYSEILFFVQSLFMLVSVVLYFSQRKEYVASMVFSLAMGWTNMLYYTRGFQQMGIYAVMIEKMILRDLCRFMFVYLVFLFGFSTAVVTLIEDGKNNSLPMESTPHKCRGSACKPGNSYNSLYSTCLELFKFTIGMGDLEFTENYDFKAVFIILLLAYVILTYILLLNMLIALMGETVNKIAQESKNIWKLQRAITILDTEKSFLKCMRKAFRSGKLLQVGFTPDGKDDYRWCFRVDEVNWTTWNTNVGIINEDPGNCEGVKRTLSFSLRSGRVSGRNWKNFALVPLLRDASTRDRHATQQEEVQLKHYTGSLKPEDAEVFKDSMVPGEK

NCCOB(c1ccccc1)c1ccccc1 [2-APB, 2-amino-ethoxydiphenylborate]
relaxation of small human bronchi [1]: relaxes small human bronchi

C=C(C)[C@]12C[C@@H](C)[C@@]34O[C@](Cc5ccccc5)(O[C@@H]1[C@@H]3C=C(COC(=O)Cc1cc(I)c(O)c(OC)c1)C[C@]1(O)C(=O)C(C)=C[C@@H]41)O2 [I-RTX, iodo-resiniferatoxin]
VR1 antagonist potency relative to capsazepine [2]: at least 40 times | inhibition of leukotriene-induced bronchoconstriction ([3]; human bronchial preparations, found by the present inventors): did not inhibit | potency of inhibition of capsaicin-induced bronchoconstriction relative to capsazepine [4]: 10-30 times

Oc1cc2c(cc1O)CN(C(=S)NCCc1ccccc1)CCC2 [RES 1-83]
effectiveness in relaxing broncho-constriction in comparison to capsazepine [3]: substantially less effective

Oc1cc2c(cc1O)CN(C(=S)NCc1ccc(C(F)(F)F)cc1)CCC2 [RES 3-22]
effectiveness in relaxing broncho-constriction in comparison to capsazepine [3]: about equally effective

Oc1c(Cl)cc2c(c1Cl)CCCN(C(=S)NCCc1ccc(Cl)cc1)C2 [RES 5-21]
effectiveness in relaxing broncho-constriction in comparison to capsazepine [3]: substantially more effective

Oc1cc2c(cc1O)CN(C(=S)NCCc1ccc(Cl)cc1)CCC2 [capsazepine]
remaining contraction (test force) relative to that caused by the control force ([3]; 10 μM capsazepine, 1 h exposure, 10 nM LTD4, bronchus from occasional smoker): about 55%

Cn1c(=O)c2[nH]cnc2n(C)c1=O [theophylline]
relaxation after pre-treatment of small human bronchi with 2-APB ([1]; pre-treatment with 2-APB): not reduced

From patent US20060040254A1, “Method for identifying bronchoconstriction relaxing substances” (priority 2004, published 2006)
